Data on 22 molecules can be found in patent US9157074B2, “Beta-amylase, gene coding therefor and manufacturing method thereof” (Amano Enzyme Inc., priority 2008, dated 2015).

“Also recorded” adds a separate entry of the source. Some results are limits rather than exact numbers.

Data set [1] relates to β-amylase. Put plainly: Effect of metal ion and inhibitor on β-amylase activity. Format: biochemical, Bacillus flexus. Conditions: 30° C., 30 minutes; for Relative activity: 1 mM metal ion or inhibitor, pH 5.0, not added = 100%; for effect on activity: 1 mM. How it is done: (§1) The activity of β-amylase was measured as follows. To 0.5 ml of 0.1M phosphate-HCl buffer solution (pH 5.0) containing 1% soluble starch and 10 mM calcium acetate, 0.5 ml of enzyme solution was added. The mixture was incubated at 37° C. for 30 minutes. Then, 2.5 ml of DNS solution (0.2% DNS, 80 mM NaOH, 0.2 M potassium sodium tartrate tetrahydrate) was added to the mixture so as to stop the reaction. After the reaction was stopped, the reaction mixture was boiled for five minutes, the absorbance was measured at the wavelength of 530 nm. The enzyme amount when the absorbance measured at the wavelength of 530 nm is 1 is defined as one unit.
To β-amylase in 0.1 M acetic acid-hydrochloric acid buffer solution (pH 5.0) containing 10 mM calcium acetate, 1 mM of various metal ions or inhibitor were added, respectively, treated at 30° C. for 30 minutes, and then the activity was measured by the above-mentioned β-amylase activity. The values were shown as the relative activity when the metal ion and inhibitor were not added is defined as 100%. The activity was inhibited by Cu ion, iodine acetic acid, PCMB, and SDS.

Data set [2] has as its system β-amylase. The data set can be described thus: Substrate specificity of β-amylase. The data set is classed as biochemical, Bacillus flexus. Conditions: for substrate specificity (words): relative to soluble starch = 100%; for Relative activity (%): activity with respect to soluble starch = 100%, oligosaccharides 0.5%, 0.1 u/ml enzyme, 37° C., 30 minutes, maltose by HPLC. As to the method: as §1
The β-amylase activity with respect to each substrate was examined. The values are shown as the relative activity when the activity with respect to soluble starch is defined as 100%. As to oligosaccharides, the production amount of maltose was examined by the below-mentioned quantification amount of maltose. After 0.1 u/ml enzyme was reacted to 0.5% of each maltooligosaccharide at 37° C. for 30 minutes, quantification of maltose was carried out by HPLC (Aminex carbohydrate HPX-42A, BIO-RAD). A production amount of maltose when the substrate is soluble starch is defined as 100%, the relative activity with respect to each maltooligosaccharide was calculated from the production amount of maltose.
The values were shown as the relative activity when a production amount of maltose with respect to soluble starch is defined as 100%.

A short description of data set [3]: Optimum reaction pH of β-amylase. The data set is classed as biochemical. Conditions: 1% soluble starch, 37° C., 10 minutes; citric acid buffer pH2-4, Britton-Robinson buffer pH4-11. How it is done:
For the substrate, 1% soluble starch was used, and the measurement was carried out in each buffer solution (citric acid buffer: pH2, pH3, and pH4, Britton-Robinson buffer: pH4, pH5, pH6, pH7, pH8, pH9, pH10, and pH11) at 37° C. for 10 minutes. […] The optimum reaction pH was about 8.0 (FIG. 2).

Data set [4] is described as follows: Isoelectric point by isoelectric point precipitation using Ampholine. Conditions: 600V, 4° C., 48 hours. The data set is classed as physicochemical. As to the method:
When the isoelectric point of the present enzyme was measured by isoelectric point precipitation using Ampholine (electrification at 600V, at 4° C., for 48 hours), it was 9.7.

Data set [5] can be described thus: β-amylase specific activity at each purification stage. The data set is classed as biochemical. How it is done: as §1
Bacillus flexus APC9451 was cultured with shaking at 30° C. for three days by using a liquid medium having the compositions shown in Table 1. The obtained culture supernatant solution was four-times concentrated by using an UF membrane (AIP-0013, Asahi Kasei Corporation), and then ammonium sulfate was added thereto so as to obtain 60% saturation concentration. The precipitate fraction was dissolved again in 20 mM acetic acid buffer solution (pH 5.5). Then, to the mixture solution, ammonium sulfate was added so as to obtain 20% saturation concentration. […]

The nature of data set [6]: Thermostability (remaining activity after heat treatment). Format: physicochemical. How it is done: as §1
The enzyme solution (20 u/ml) was subjected to heat treatment in 0.1 M acetic acid-hydrochloric acid buffer solution (pH 5.0) containing 10 mM calcium acetate at each temperature of 37° C., 50° C., 55° C., 60° C., 65° C. and 70° C. for 10 minutes, and then the remaining activity was measured by the above-mentioned β-amylase activity measurement method. The values are shown as the remaining activity when the remaining activity with no heat treatment is defined as 100%. […] (FIG. 3).

Data set [7] is described as follows: Optimum reaction temperature of β-amylase. The data set is classed as biochemical. Conditions: pH 5.0, reaction temperatures 25 to 70° C. As to the method:
as §1
According to the above-mentioned β-amylase activity measurement method, reaction was carried out at the reaction temperatures of 25° C., 37° C., 50° C., 55° C., 60° C., 65° C., and 70° C. […] The optimum reaction temperature was around 55° C. (FIG. 1).

The next data set can be described thus: pH stability. Format: physicochemical. Conditions: pH 4 to 9, 30° C., three hours. How it is done: as §1
β-amylase was treated in each of the buffer solutions (citric acid buffer: pH2, pH3, and pH4, Britton-Robinson buffer: pH4, pH5, pH6, pH7, pH8, pH9, pH10, and pH11) at 30° C. for three house, and then the activity was measured by the above-mentioned β-amylase activity measurement method. […] The […] was 4 to 9 (FIG. 4).

On to `[Cu+2]` [Cu^2+], for which, in the data set on β-amylase [1], the Relative activity was 46% and the “effect on activity” value is “inhibited”. Turning to cyclodextrin, the results for the “substrate specificity (words)” value in the data set on β-amylase [2] and in the data set on β-amylase [2] (listed as Cyclodextrin) were “does not substantially act” and “almost broken down”, respectively.

Take Maltohexaose: the “Relative activity (%)” value with β-amylase [2] was determined as 131%. As to `[Fe+2]` [Fe^2+], the Relative activity is recorded as 105% in the data set on β-amylase [1] and 113% with β-amylase [1] (listed as Fe^3+). As for `CCN1C(=O)C=CC1=O` [N-ethylmaleimide], the Relative activity with β-amylase [1] is 93%.

With `[K+]` [K^+], the Relative activity in the data set with β-amylase [1] is listed as 96%.

On to `OC[C@H]1O[C@@H]2O[C@H]3[C@H](O)[C@@H](O)[C@@H](O[C@H]4[C@H](O)[C@@H](O)[C@@H](O[C@H]5[C@H](O)[C@@H](O)[C@@H](O[C@H]6[C@H](O)[C@@H](O)[C@@H](O[C@H]7[C@H](O)[C@@H](O)[C@@H](O[C@H]1[C@H](O)[C@H]2O)O[C@@H]7CO)O[C@@H]6CO)O[C@@H]5CO)O[C@@H]4CO)O[C@@H]3CO` [α-cyclodextrin], for which the “Relative activity (%)” value in the data set with β-amylase [2] is recorded as 0%.

On to Maltopentaose, for which, in the data set on β-amylase [2], the “Relative activity (%)” value was determined as 102%. For the molecule `[Mg+2]` [Mg^2+], in the data set with β-amylase [1], the Relative activity is listed as 103%. For the molecule `O=C(O)c1cc[c]([Hg][Cl])cc1` [PCMB], in the data set with β-amylase [1], the Relative activity is 25% and the “effect on activity” value is given as “inhibited”. Take Maltoheptaose: in the data set with β-amylase [2], the “Relative activity (%)” value turned out to be 111%. The same measure, in the same setting: next, `OC[C@H]1O[C@@H]2O[C@H]3[C@H](O)[C@@H](O)[C@@H](O[C@H]4[C@H](O)[C@@H](O)[C@@H](O[C@H]5[C@H](O)[C@@H](O)[C@@H](O[C@H]6[C@H](O)[C@@H](O)[C@@H](O[C@H]7[C@H](O)[C@@H](O)[C@@H](O[C@H]8[C@H](O)[C@@H](O)[C@@H](O[C@H]9[C@H](O)[C@@H](O)[C@@H](O[C@H]1[C@H](O)[C@H]2O)O[C@@H]9CO)O[C@@H]8CO)O[C@@H]7CO)O[C@@H]6CO)O[C@@H]5CO)O[C@@H]4CO)O[C@@H]3CO` [γ-cyclodextrin-, γ-cyclodextrin]: 0.6%. With `CCCCCCCCCCCCOS(=O)(=O)[O-].[Na+]` [SDS], in the data set on β-amylase [1], the Relative activity came to 37% and the “effect on activity” value was “inhibited”. On to `O=C(O)CI` [monoiodoacetic acid], for which, in the data set with β-amylase [1], the Relative activity was 14% and the “effect on activity” value is on record as “inhibited”. On to `[Ca+2]` [Ca^2+], for which the Relative activity in the data set with β-amylase [1] is 130%. With `OC[C@H]1O[C@H](O[C@H]2[C@H](O)[C@@H](O)[C@@H](O[C@H]3[C@H](O)[C@@H](O)[C@@H](O[C@H]4[C@H](O)[C@@H](O)C(O)O[C@@H]4CO)O[C@@H]3CO)O[C@@H]2CO)[C@H](O)[C@@H](O)[C@@H]1O` (stereo partly shown) [Maltotetraose], the “Relative activity (%)” value with β-amylase [2] was found to be 75%. In the case of `OC[C@H]1O[C@@H]2O[C@H]3[C@H](O)[C@@H](O)[C@@H](O[C@H]4[C@H](O)[C@@H](O)[C@@H](O[C@H]5[C@H](O)[C@@H](O)[C@@H](O[C@H]6[C@H](O)[C@@H](O)[C@@H](O[C@H]7[C@H](O)[C@@H](O)[C@@H](O[C@H]8[C@H](O)[C@@H](O)[C@@H](O[C@H]1[C@H](O)[C@H]2O)O[C@@H]8CO)O[C@@H]7CO)O[C@@H]6CO)O[C@@H]5CO)O[C@@H]4CO)O[C@@H]3CO` [β-cyclodextrin], the “Relative activity (%)” value in the data set on β-amylase [2] was found to be 1.4%. With `[Mn+2]` [Mn^2+], the Relative activity with β-amylase [1] was found to be 222%. As for Maltotriose, in the data set on β-amylase [2], the “Relative activity (%)” value is 0% and the “substrate specificity (words)” value was “did not act; also recorded: does not substantially act”.

Turning to `[Na+]` [Na^+], in the data set on β-amylase [1], the Relative activity came out at 88%. For `[Zn+2]` [Zn^2+], the Relative activity in the data set with β-amylase [1] is 96%.

B1: β-amylase: purified β-amylase from Bacillus flexus APC9451, amino acid sequence SEQ ID NO: 7; final HiLoad 16/60 Superdex200 stage (protein, listed as Bacillus flexus)
chain: MYKPIKKFASLIVLLSFVAAFILGPTNSQAAVNGQSFNSNYKTYLMAPLKKVTEFTTWEAFENDLRKAKQNGFYAVTVDFWWGDMEKNGDQQFDFSYAQRFAQAARNAGIKMVPIISTHQCGGNVGDDCNTPLPSWIWNTKTDDSLYFKSETGTVNKETVNPLATDVITKQYGELYTAFAQALAPYKDVIPKVYLSGGPAGELRYPSYTAADGTGYPSRGKFQAYTDFAKSKFQMWAVNKYGSLAGVNQAWGLSLTSTSQILPPSDGNQFLKDGYNTNYGKDFLEWYQGVLQDHAKRIGALAHQAFDPVFNVPVGAKIAGIHWQYNNPTMPHAAEKPAGYNNYSTLLDSFKTAKLDLTFTCLEMVDSGTYPEYSMPKTLVKEVASLANAKGIVLNGENALSIGSEEQYKRAAEMTFNYNFAGFTLLRFYDVINNSTRMSQFNQHLNIKPVAQTMVVKNAPTSSGESVYIVGDRPELGQWDTIAYPIKLSYNSTYGDWRGTVNFPADRSVQFKAIIKRSDGSLKSWQPTQQYWNVPGTPTTYTNNW
As to B1, the “optimum reaction pH” value in data set [3] was “about 8.0”. The isoelectric point in data set [4] is recorded as 9.7. For the same molecule, the “specific activity in the final stage as compared with that of the crude enzyme” value in data set [5] (final purification stage vs crude enzyme) is on record as 2270 times. The Specific activity in data set [5] (purification stage of β-amylase from Bacillus flexus APC9451) was found to be 1569 u/mg. Further, in data set [6] (55° C., 10 minutes, 0.1 M acetic acid-hydrochloric acid buffer pH 5.0, 10 mM calcium acetate, no heat treatment = 100%), the “remaining activity after heat treatment” value was at least 90%. Also, the “thermostability (temperature until which stable)” value in data set [6] (pH 5.0, 10 minutes) was at most 55 °C. Besides, the optimum reaction temperature entry in data set [7] is “around 55 °C”; in data set [7] (listed as the present enzyme), “about 55 °C”. Also, the “activity with respect to the maximum activity after treatment” value in “pH stability” is at least 70%.
